Test results published in PubChem BioAssay (NCI).
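Compound exposure: 48 hours, 5 concentrations, 96-well plates. GI50 = concentration required for 50% inhibition of growth. TGI: concentration producing complete growth inhibition.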

How the values were obtained:
Assay in all cases: inhibition of tumour cell growth, NCI panel, 48 h
786-0 renal = test system: 786-0 renal
A498 renal = test system: A498 renal
A549 NSCLC = test system: A549 NSCLC
ACHN renal = test system: ACHN renal
BT-549 breast = test system: BT-549 breast
CAKI-1 renal = test system: CAKI-1 renal
CCRF-CEM leukemia = test system: CCRF-CEM leukemia
COLO 205 colon = test system: COLO 205 colon
DU-145 prostate = test system: DU-145 prostate
EKVX NSCLC = test system: EKVX NSCLC
HCC-2998 colon = test system: HCC-2998 colon
HCT-116 colon = test system: HCT-116 colon
HCT-15 colon = test system: HCT-15 colon
HL-60(TB) leukemia = test system: HL-60(TB) leukemia
HOP-62 NSCLC = test system: HOP-62 NSCLC
HOP-92 NSCLC = test system: HOP-92 NSCLC
HS 578T breast = test system: HS 578T breast
HT29 colon = test system: HT29 colon
IGROV1 ovarian = test system: IGROV1 ovarian
K-562 leukemia = test system: K-562 leukemia
KM12 colon = test system: KM12 colon
LOX IMVI melanoma = test system: LOX IMVI melanoma
M14 melanoma = test system: M14 melanoma
MALME-3M melanoma = test system: MALME-3M melanoma
MCF7 breast = test system: MCF7 breast
MDA-MB-231 breast = test system: MDA-MB-231 breast
MDA-MB-435 = test system: MDA-MB-435
MDA-MB-468 breast = test system: MDA-MB-468 breast
MOLT-4 leukemia = test system: MOLT-4 leukemia
NCI-H226 lung = test system: NCI-H226 lung
NCI-H23 lung = test system: NCI-H23 lung
NCI-H460 lung = test system: NCI-H460 lung
NCI-H522 lung = test system: NCI-H522 lung
NCI/ADR-RES ovarian = test system: NCI/ADR-RES ovarian
OVCAR-3 ovarian = test system: OVCAR-3 ovarian
OVCAR-4 ovarian = test system: OVCAR-4 ovarian
OVCAR-5 ovarian = test system: OVCAR-5 ovarian
OVCAR-8 ovarian = test system: OVCAR-8 ovarian
PC-3 prostate = test system: PC-3 prostate
RPMI-8226 leukemia = test system: RPMI-8226 leukemia
RXF 393 renal = test system: RXF 393 renal
SF-268 CNS = test system: SF-268 CNS
SF-295 CNS = test system: SF-295 CNS
SF-539 CNS = test system: SF-539 CNS
SK-MEL-2 melanoma = test system: SK-MEL-2 melanoma
SK-MEL-28 melanoma = test system: SK-MEL-28 melanoma
SK-MEL-5 melanoma = test system: SK-MEL-5 melanoma
SK-OV-3 ovarian = test system: SK-OV-3 ovarian
SN12C renal = test system: SN12C renal
SNB-19 CNS = test system: SNB-19 CNS
SNB-75 CNS = test system: SNB-75 CNS
SW-620 colon = test system: SW-620 colon
T-47D breast = test system: T-47D breast
TK-10 renal = test system: TK-10 renal
U251 CNS = test system: U251 CNS
UACC-257 melanoma = test system: UACC-257 melanoma
UACC-62 melanoma = test system: UACC-62 melanoma
UO-31 renal = test system: UO-31 renal

SMILES: O=C(c1ccc(OCCN2CCOCC2)cc1)C1[C@H](c2ccc(Cl)cc2)[C@@H](c2ccccc2)NC12C(=O)Nc1ccc(Cl)cc12 (stereo partly specified)
- GI50 (786-0 renal): 8.8 µM
- TGI (786-0 renal): 19.6 µM
- GI50 (A498 renal): 8.24 µM
- TGI (A498 renal): 23.2 µM
- GI50 (A549 NSCLC): 12.6 µM
- TGI (A549 NSCLC): > 47.3 µM
- GI50 (ACHN renal): 11.9 µM
- TGI (ACHN renal): 40.9 µM
- GI50 (BT-549 breast): 8.58 µM
- TGI (BT-549 breast): 23.5 µM
- GI50 (CAKI-1 renal): 8.1 µM
- TGI (CAKI-1 renal): 39.5 µM
- GI50 (CCRF-CEM leukemia): 10.6 µM
- TGI (CCRF-CEM leukemia): 27.1 µM
- GI50 (COLO 205 colon): 8.43 µM
- TGI (COLO 205 colon): 16.8 µM
- GI50 (DU-145 prostate): 10.9 µM
- TGI (DU-145 prostate): 28.2 µM
- GI50 (EKVX NSCLC): 8.46 µM
- TGI (EKVX NSCLC): 27.2 µM
- GI50 (HCC-2998 colon): 7.6 µM
- TGI (HCC-2998 colon): 14.9 µM
- GI50 (HCT-116 colon): 8.02 µM
- TGI (HCT-116 colon): 15.9 µM
- GI50 (HCT-15 colon): 7.53 µM
- TGI (HCT-15 colon): 15.9 µM
- GI50 (HL-60(TB) leukemia): 12 µM
- TGI (HL-60(TB) leukemia): 34.9 µM
- GI50 (HOP-62 NSCLC): 9.46 µM
- TGI (HOP-62 NSCLC): 19.5 µM
- GI50 (HOP-92 NSCLC): 6.85 µM
- TGI (HOP-92 NSCLC): 18.7 µM
- GI50 (HS 578T breast): 7.88 µM
- TGI (HS 578T breast): 21.6 µM
- GI50 (HT29 colon): 7.49 µM
- TGI (HT29 colon): 16.7 µM
- GI50 (IGROV1 ovarian): 9.58 µM
- TGI (IGROV1 ovarian): 23.9 µM
- GI50 (K-562 leukemia): 12.8 µM
- TGI (K-562 leukemia): > 47.3 µM
- GI50 (KM12 colon): 8.31 µM
- TGI (KM12 colon): 18.2 µM
- GI50 (LOX IMVI melanoma): 7.35 µM
- TGI (LOX IMVI melanoma): 13.7 µM
- GI50 (M14 melanoma): 8.04 µM
- TGI (M14 melanoma): 15.8 µM
- GI50 (MALME-3M melanoma): 7.11 µM
- TGI (MALME-3M melanoma): 14.3 µM
- GI50 (MCF7 breast): 8.4 µM
- TGI (MCF7 breast): 27.8 µM
- GI50 (MDA-MB-231 breast): 7.62 µM
- TGI (MDA-MB-231 breast): 14.4 µM
- GI50 (MDA-MB-435): 7.85 µM
- TGI (MDA-MB-435): 15.8 µM
- GI50 (MDA-MB-468 breast): 7.43 µM
- TGI (MDA-MB-468 breast): 20.4 µM
- GI50 (MOLT-4 leukemia): 7.53 µM
- TGI (MOLT-4 leukemia): 27.9 µM
- GI50 (NCI-H226 lung): 8.06 µM
- TGI (NCI-H226 lung): 19.5 µM
- GI50 (NCI-H23 lung): 8.72 µM
- TGI (NCI-H23 lung): 18.2 µM
- GI50 (NCI-H460 lung): 8.9 µM
- TGI (NCI-H460 lung): 19.1 µM
- GI50 (NCI-H522 lung): 9.75 µM
- TGI (NCI-H522 lung): 21.3 µM
- GI50 (NCI/ADR-RES ovarian): 11.1 µM
- TGI (NCI/ADR-RES ovarian): 31.2 µM
- GI50 (OVCAR-3 ovarian): 8.24 µM
- TGI (OVCAR-3 ovarian): 20.1 µM
- GI50 (OVCAR-4 ovarian): 11 µM
- TGI (OVCAR-4 ovarian): 39.2 µM
- GI50 (OVCAR-5 ovarian): 8.98 µM
- TGI (OVCAR-5 ovarian): 25.4 µM
- GI50 (OVCAR-8 ovarian): 13.6 µM
- TGI (OVCAR-8 ovarian): > 47.3 µM
- GI50 (PC-3 prostate): 7.93 µM
- TGI (PC-3 prostate): 20.3 µM
- GI50 (RPMI-8226 leukemia): 10.3 µM
- TGI (RPMI-8226 leukemia): 29.9 µM
- GI50 (RXF 393 renal): 6.14 µM
- TGI (RXF 393 renal): 13.6 µM
- GI50 (SF-268 CNS): 10.6 µM
- TGI (SF-268 CNS): > 47.3 µM
- GI50 (SF-295 CNS): 7.41 µM
- TGI (SF-295 CNS): 14.4 µM
- GI50 (SF-539 CNS): 8 µM
- TGI (SF-539 CNS): 15 µM
- GI50 (SK-MEL-2 melanoma): 7.85 µM
- TGI (SK-MEL-2 melanoma): 15.7 µM
- GI50 (SK-MEL-28 melanoma): 7.8 µM
- TGI (SK-MEL-28 melanoma): 14.6 µM
- GI50 (SK-MEL-5 melanoma): 5.4 µM
- TGI (SK-MEL-5 melanoma): 11.8 µM
- GI50 (SK-OV-3 ovarian): 15.4 µM
- TGI (SK-OV-3 ovarian): > 47.3 µM
- GI50 (SN12C renal): 6.75 µM
- TGI (SN12C renal): 13 µM
- GI50 (SNB-19 CNS): 10.6 µM
- TGI (SNB-19 CNS): 34.9 µM
- GI50 (SNB-75 CNS): 4.11 µM
- TGI (SNB-75 CNS): > 47.3 µM
- GI50 (SW-620 colon): 8.77 µM
- TGI (SW-620 colon): 18.9 µM
- GI50 (T-47D breast): 13.5 µM
- TGI (T-47D breast): > 47.3 µM
- GI50 (TK-10 renal): 9.96 µM
- TGI (TK-10 renal): 33.7 µM
- GI50 (U251 CNS): 7.15 µM
- TGI (U251 CNS): 14.6 µM
- GI50 (UACC-257 melanoma): 9.69 µM
- TGI (UACC-257 melanoma): 34.2 µM
- GI50 (UACC-62 melanoma): 6.42 µM
- TGI (UACC-62 melanoma): 12.8 µM
- GI50 (UO-31 renal): 7.25 µM
- TGI (UO-31 renal): 23.7 µM
